In PubChem BioAssay (NCI):
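1) Cells in 96-well plates. 2) Compound, 48 h, 5 concentrations. 3) Linear interpolation between surrounding doses. 4) Unreached endpoint = highest concentration. GI50 is the concentration that inhibits growth by half. TGI marks complete inhibition of growth.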

How the values were obtained:
Experiment in all cases: growth of human tumour cells (NCI), 48 h
786-0 renal = test system: 786-0 renal
A498 renal = test system: A498 renal
ACHN renal = test system: ACHN renal
BT-549 breast = test system: BT-549 breast
CAKI-1 renal = test system: CAKI-1 renal
CCRF-CEM leukemia = test system: CCRF-CEM leukemia
COLO 205 colon = test system: COLO 205 colon
DU-145 prostate = test system: DU-145 prostate
EKVX NSCLC = test system: EKVX NSCLC
HCC-2998 colon = test system: HCC-2998 colon
HCT-116 colon = test system: HCT-116 colon
HCT-15 colon = test system: HCT-15 colon
HL-60(TB) leukemia = test system: HL-60(TB) leukemia
HOP-62 NSCLC = test system: HOP-62 NSCLC
HOP-92 NSCLC = test system: HOP-92 NSCLC
HS 578T breast = test system: HS 578T breast
HT29 colon = test system: HT29 colon
IGROV1 ovarian = test system: IGROV1 ovarian
K-562 leukemia = test system: K-562 leukemia
KM12 colon = test system: KM12 colon
LOX IMVI melanoma = test system: LOX IMVI melanoma
M14 melanoma = test system: M14 melanoma
MCF7 breast = test system: MCF7 breast
MDA-MB-231 breast = test system: MDA-MB-231 breast
MDA-MB-435 = test system: MDA-MB-435
MOLT-4 leukemia = test system: MOLT-4 leukemia
NCI-H226 lung = test system: NCI-H226 lung
NCI-H23 lung = test system: NCI-H23 lung
NCI-H460 lung = test system: NCI-H460 lung
NCI/ADR-RES ovarian = test system: NCI/ADR-RES ovarian
OVCAR-4 ovarian = test system: OVCAR-4 ovarian
OVCAR-8 ovarian = test system: OVCAR-8 ovarian
PC-3 prostate = test system: PC-3 prostate
RPMI-8226 leukemia = test system: RPMI-8226 leukemia
RXF 393 renal = test system: RXF 393 renal
SF-268 CNS = test system: SF-268 CNS
SF-295 CNS = test system: SF-295 CNS
SF-539 CNS = test system: SF-539 CNS
SK-MEL-2 melanoma = test system: SK-MEL-2 melanoma
SK-MEL-28 melanoma = test system: SK-MEL-28 melanoma
SK-MEL-5 melanoma = test system: SK-MEL-5 melanoma
SK-OV-3 ovarian = test system: SK-OV-3 ovarian
SNB-19 CNS = test system: SNB-19 CNS
SNB-75 CNS = test system: SNB-75 CNS
SR leukemia = test system: SR leukemia
SW-620 colon = test system: SW-620 colon
T-47D breast = test system: T-47D breast
TK-10 renal = test system: TK-10 renal
U251 CNS = test system: U251 CNS
UACC-257 melanoma = test system: UACC-257 melanoma
UACC-62 melanoma = test system: UACC-62 melanoma
UO-31 renal = test system: UO-31 renal
A549 NSCLC = test system: A549 NSCLC
MALME-3M melanoma = test system: MALME-3M melanoma
NCI-H522 lung = test system: NCI-H522 lung
OVCAR-3 ovarian = test system: OVCAR-3 ovarian
OVCAR-5 ovarian = test system: OVCAR-5 ovarian
SN12C renal = test system: SN12C renal

Work on CCCCCCC(=O)c1ccc2ccccc2c1O yielded a TGI (786-0 renal) greater than 100 µM, a TGI (A498 renal) greater than 100 µM and a TGI (ACHN renal) greater than 100 µM. For the same molecule, the TGI (BT-549 breast) was greater than 100 µM, the TGI (CAKI-1 renal) was 95.4 µM and the TGI (CCRF-CEM leukemia) was greater than 100 µM. For the same molecule, the TGI (COLO 205 colon) was greater than 100 µM, the TGI (DU-145 prostate) was 92.6 µM and the TGI (EKVX NSCLC) was greater than 100 µM. For the same molecule, the TGI (HCC-2998 colon) was greater than 100 µM, the TGI (HCT-116 colon) was greater than 100 µM and the TGI (HCT-15 colon) was greater than 100 µM. For the same molecule, the TGI (HL-60(TB) leukemia) was greater than 100 µM, the TGI (HOP-62 NSCLC) was greater than 100 µM and the TGI (HOP-92 NSCLC) was greater than 100 µM. The TGI (HS 578T breast) was greater than 100 µM, the TGI (HT29 colon) was greater than 100 µM and the TGI (IGROV1 ovarian) was greater than 100 µM. The TGI (K-562 leukemia) was greater than 100 µM, the TGI (KM12 colon) was greater than 100 µM and the TGI (LOX IMVI melanoma) was greater than 100 µM. For the same molecule, the TGI (M14 melanoma) was greater than 100 µM, the TGI (MCF7 breast) was greater than 100 µM and the TGI (MDA-MB-231 breast) was greater than 100 µM. It also gave a TGI (MDA-MB-435) greater than 100 µM, a TGI (MOLT-4 leukemia) greater than 100 µM and a TGI (NCI-H226 lung) greater than 100 µM. It also gave a TGI (NCI-H23 lung) greater than 100 µM, a TGI (NCI-H460 lung) greater than 100 µM and a TGI (NCI/ADR-RES ovarian) greater than 100 µM. For the same molecule, the TGI (OVCAR-4 ovarian) was greater than 100 µM, the TGI (OVCAR-8 ovarian) was greater than 100 µM and the TGI (PC-3 prostate) was greater than 100 µM. For the same molecule, the TGI (RPMI-8226 leukemia) was greater than 100 µM, the TGI (RXF 393 renal) was 74.4 µM and the TGI (SF-268 CNS) was greater than 100 µM. The TGI (SF-295 CNS) was greater than 100 µM, the TGI (SF-539 CNS) was greater than 100 µM and the TGI (SK-MEL-2 melanoma) was 67.5 µM. For the same molecule, the TGI (SK-MEL-28 melanoma) was greater than 100 µM, the TGI (SK-MEL-5 melanoma) was greater than 100 µM and the TGI (SK-OV-3 ovarian) was greater than 100 µM. For the same molecule, the TGI (SNB-19 CNS) was greater than 100 µM, the TGI (SNB-75 CNS) was greater than 100 µM and the TGI (SR leukemia) was greater than 100 µM. For the same molecule, the TGI (SW-620 colon) was greater than 100 µM, the TGI (T-47D breast) was greater than 100 µM and the TGI (TK-10 renal) was greater than 100 µM. For the same molecule, the TGI (U251 CNS) was greater than 100 µM, the TGI (UACC-257 melanoma) was greater than 100 µM and the TGI (UACC-62 melanoma) was greater than 100 µM. For the same molecule, the TGI (UO-31 renal) was greater than 100 µM.

Molecule CN1CCN(c2ccc(-c3cccc(CN4CCOCC4)c3)cc2NC(=O)c2c[nH]c(=O)cc2C(F)(F)F)CC1 has a GI50 (786-0 renal) of 41.8 µM, a TGI (786-0 renal) greater than 100 µM and a GI50 (A549 NSCLC) of 53.5 µM. The TGI (A549 NSCLC) was greater than 100 µM, the GI50 (ACHN renal) was 40.4 µM and the TGI (ACHN renal) was greater than 100 µM. The GI50 (BT-549 breast) was 23.7 µM, the TGI (BT-549 breast) was greater than 100 µM and the GI50 (CCRF-CEM leukemia) was 58.8 µM. It also gave a TGI (CCRF-CEM leukemia) greater than 100 µM, a GI50 (COLO 205 colon) of 17.8 µM and a TGI (COLO 205 colon) greater than 100 µM. The GI50 (DU-145 prostate) was 62.5 µM, the TGI (DU-145 prostate) was greater than 100 µM and the GI50 (EKVX NSCLC) was 69.7 µM. It also gave a TGI (EKVX NSCLC) greater than 100 µM, a GI50 (HCC-2998 colon) greater than 100 µM and a TGI (HCC-2998 colon) greater than 100 µM. For the same molecule, the GI50 (HCT-116 colon) was 16.4 µM, the TGI (HCT-116 colon) was greater than 100 µM and the GI50 (HCT-15 colon) was 50.3 µM. The TGI (HCT-15 colon) was greater than 100 µM, the GI50 (HL-60(TB) leukemia) was 36.4 µM and the TGI (HL-60(TB) leukemia) was greater than 100 µM. The GI50 (HOP-62 NSCLC) was greater than 100 µM, the TGI (HOP-62 NSCLC) was greater than 100 µM and the GI50 (HOP-92 NSCLC) was 10.7 µM. The TGI (HOP-92 NSCLC) was greater than 100 µM, the GI50 (HS 578T breast) was 44.8 µM and the TGI (HS 578T breast) was greater than 100 µM. It also gave a GI50 (HT29 colon) of 17.9 µM, a TGI (HT29 colon) of 58.3 µM and a GI50 (IGROV1 ovarian) of 60.7 µM. For the same molecule, the TGI (IGROV1 ovarian) was greater than 100 µM, the GI50 (K-562 leukemia) was 22.1 µM and the TGI (K-562 leukemia) was 51 µM. The GI50 (KM12 colon) was 46.8 µM, the TGI (KM12 colon) was greater than 100 µM and the GI50 (LOX IMVI melanoma) was 25.1 µM. The TGI (LOX IMVI melanoma) was greater than 100 µM, the GI50 (M14 melanoma) was 17.2 µM and the TGI (M14 melanoma) was 36.9 µM. For the same molecule, the GI50 (MALME-3M melanoma) was 21.6 µM, the TGI (MALME-3M melanoma) was 51.4 µM and the GI50 (MCF7 breast) was 33.1 µM. It also gave a TGI (MCF7 breast) greater than 100 µM, a GI50 (MDA-MB-231 breast) of 16.3 µM and a TGI (MDA-MB-231 breast) of 54.6 µM. For the same molecule, the GI50 (MDA-MB-435) was 30.2 µM, the TGI (MDA-MB-435) was greater than 100 µM and the GI50 (MOLT-4 leukemia) was 19 µM. For the same molecule, the TGI (MOLT-4 leukemia) was 64 µM, the GI50 (NCI-H226 lung) was greater than 100 µM and the TGI (NCI-H226 lung) was greater than 100 µM. It also gave a GI50 (NCI-H23 lung) greater than 100 µM, a TGI (NCI-H23 lung) greater than 100 µM and a GI50 (NCI-H460 lung) of 45.8 µM. The TGI (NCI-H460 lung) was greater than 100 µM, the GI50 (NCI-H522 lung) was 16.7 µM and the TGI (NCI-H522 lung) was 39.5 µM. For the same molecule, the GI50 (NCI/ADR-RES ovarian) was greater than 100 µM, the TGI (NCI/ADR-RES ovarian) was greater than 100 µM and the GI50 (OVCAR-3 ovarian) was 31.7 µM. It also gave a TGI (OVCAR-3 ovarian) greater than 100 µM, a GI50 (OVCAR-4 ovarian) of 55.9 µM and a TGI (OVCAR-4 ovarian) greater than 100 µM. The GI50 (OVCAR-5 ovarian) was greater than 100 µM, the TGI (OVCAR-5 ovarian) was greater than 100 µM and the GI50 (OVCAR-8 ovarian) was 48.7 µM. For the same molecule, the TGI (OVCAR-8 ovarian) was greater than 100 µM, the GI50 (PC-3 prostate) was 32.3 µM and the TGI (PC-3 prostate) was greater than 100 µM. It also gave a GI50 (RPMI-8226 leukemia) of 38.2 µM, a TGI (RPMI-8226 leukemia) greater than 100 µM and a GI50 (RXF 393 renal) of 23.1 µM. The TGI (RXF 393 renal) was greater than 100 µM, the GI50 (SF-268 CNS) was 62.5 µM and the TGI (SF-268 CNS) was greater than 100 µM. It also gave a GI50 (SF-295 CNS) of 33.1 µM, a TGI (SF-295 CNS) greater than 100 µM and a GI50 (SF-539 CNS) of 19.5 µM. The TGI (SF-539 CNS) was 44.7 µM, the GI50 (SK-MEL-2 melanoma) was 27.3 µM and the TGI (SK-MEL-2 melanoma) was 72 µM. It also gave a GI50 (SK-MEL-28 melanoma) of 37.1 µM, a TGI (SK-MEL-28 melanoma) greater than 100 µM and a GI50 (SK-MEL-5 melanoma) of 14.2 µM. The TGI (SK-MEL-5 melanoma) was 28.3 µM, the GI50 (SK-OV-3 ovarian) was greater than 100 µM and the TGI (SK-OV-3 ovarian) was greater than 100 µM. It also gave a GI50 (SN12C renal) greater than 100 µM, a TGI (SN12C renal) greater than 100 µM and a GI50 (SNB-19 CNS) of 94.7 µM. For the same molecule, the TGI (SNB-19 CNS) was greater than 100 µM, the GI50 (SNB-75 CNS) was 13.6 µM and the TGI (SNB-75 CNS) was 99.8 µM. The GI50 (SR leukemia) was 26.4 µM, the TGI (SR leukemia) was 63.7 µM and the GI50 (SW-620 colon) was 33.6 µM. For the same molecule, the TGI (SW-620 colon) was greater than 100 µM, the GI50 (T-47D breast) was 31.3 µM and the TGI (T-47D breast) was greater than 100 µM. The GI50 (TK-10 renal) was 68.7 µM, the TGI (TK-10 renal) was greater than 100 µM and the GI50 (U251 CNS) was 23.6 µM. The TGI (U251 CNS) was greater than 100 µM, the GI50 (UACC-257 melanoma) was 16.9 µM and the TGI (UACC-257 melanoma) was 31.6 µM. For the same molecule, the GI50 (UACC-62 melanoma) was 60.1 µM, the TGI (UACC-62 melanoma) was greater than 100 µM and the GI50 (UO-31 renal) was 49 µM. The TGI (UO-31 renal) was greater than 100 µM.
